Data as given in patent US7173062B2, “Method for the improvement of skin wrinkles using retinyl retinoate” (Enprani Co., Ltd., priority 2001, dated 2007).

Key:
RAR α = target: T1, RAR α (Homo sapiens, UniProt P10276); assay: Activity for RAR α (CAT reporter in HaCaT cells); format: cell-based; details: 1 μM, CAT ELISA
T1 construct: expressed in transfected cells; host or cells: HaCaT
T1 sequence (P10276 1-462): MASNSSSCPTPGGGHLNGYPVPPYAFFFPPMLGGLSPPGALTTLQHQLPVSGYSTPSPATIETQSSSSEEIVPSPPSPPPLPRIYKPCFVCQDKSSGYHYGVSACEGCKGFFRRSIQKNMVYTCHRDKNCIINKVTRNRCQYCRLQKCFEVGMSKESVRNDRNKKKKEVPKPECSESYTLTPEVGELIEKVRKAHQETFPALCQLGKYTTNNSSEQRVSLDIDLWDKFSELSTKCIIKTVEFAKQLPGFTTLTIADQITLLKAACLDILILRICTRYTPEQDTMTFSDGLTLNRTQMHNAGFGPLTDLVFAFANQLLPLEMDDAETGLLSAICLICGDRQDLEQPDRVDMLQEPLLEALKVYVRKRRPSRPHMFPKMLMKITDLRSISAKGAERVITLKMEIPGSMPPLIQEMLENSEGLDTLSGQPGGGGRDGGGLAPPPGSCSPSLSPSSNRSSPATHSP
Protocol: (§1) The effect of the retinol derivatives on the activity of RAR and RXR was examined as follows.
(§2) Experimental procedure: Recombinant gene of DR5-tk-CAT or DR1-tk-CAT comprising DR1 or DR5 as a response element of RAR/RXR, […] promoter, and CAT (chloramphenicol acetyl transferase) was suitably combined with a plasmid DNA that expresses RAR α, β, γ and cotransfected to HaCaT cell line, a skin cancer cell line, with Lipofectamin (GibcoBRL). Then, the cells were incubated in DMEM/10% FBS medium for 1 day, retinol derivative was added in a concentration of 1 μM, and the cells were incubated again for 1 day under the condition of 5% CO2 and 37° C. The cells were washed with phosphate-buffered salione (PBS). Proteins were extracted from each cell, the activity of β-galactosidase was assayed, and the amount of protein was measured to determine the transfection efficiency. Further, the degree of transcription for RAR or RXR was analyzed by CAT ELISA (Roche Molecular Biochemicals, Mannheim, Germany).

[1] = test system: AP-1 (comprising c-Jun protein); assay: Inhibition of activity of AP-1 protein (Coll-CAT collagenase promoter reporter in HaCaT cells); format: cell-based; details: for Relative inhibition against the expression of collagenase / effect on / inhibitory activity against c-Jun (AP-1), in words: HaCaT, Coll-CAT; for effect on / inhibitory activity against c-Jun (AP-1), in words: c-Jun / RAR α cotransfection
Protocol: AP-1 (comprising c-Jun protein) is a transcription factor inducing the expression of collagenase that is a major cause of skin wrinkles. […] Therefore, studies thereabout were carried out in a similar manner to Experiment 6 as follows.
Experimental procedure: CAT reporter (Coll-CAT) having the collagenase promoter wherein AP-1 response element (TRE) is contained, was transfected into HaCaT cell line, a skin cancer cell line, using a liposome. Then, the degree of inhibition against the activity of AP-1 by retinol derivatives was measured through CAT ELISA in a similar manner to Experiment 6. Further, the effect of retinol derivatives on the transcriptional activity of c-Jun (a protein that induces transfer of cancer, skin aging and inflammation, and consists of homologous isomers or heterologous isomers), a constitutional element of AP-1, was examined by cotransfecting c-Jun or RAR α expression vector.

RXR α, β, γ = assay: Activity for RXR (CAT reporter in HaCaT cells); format: cell-based; details: 1 μM, CAT ELISA, Control = 1.0
Protocol: as §1, §2

RAR γ = target: T2, RAR γ (Homo sapiens, UniProt P13631); assay: Activity for RAR γ (CAT reporter in HaCaT cells); format: cell-based; details: 1 μM, CAT ELISA
T2 construct: expressed in transfected cells; host or cells: HaCaT
T2 sequence (P13631 1-454): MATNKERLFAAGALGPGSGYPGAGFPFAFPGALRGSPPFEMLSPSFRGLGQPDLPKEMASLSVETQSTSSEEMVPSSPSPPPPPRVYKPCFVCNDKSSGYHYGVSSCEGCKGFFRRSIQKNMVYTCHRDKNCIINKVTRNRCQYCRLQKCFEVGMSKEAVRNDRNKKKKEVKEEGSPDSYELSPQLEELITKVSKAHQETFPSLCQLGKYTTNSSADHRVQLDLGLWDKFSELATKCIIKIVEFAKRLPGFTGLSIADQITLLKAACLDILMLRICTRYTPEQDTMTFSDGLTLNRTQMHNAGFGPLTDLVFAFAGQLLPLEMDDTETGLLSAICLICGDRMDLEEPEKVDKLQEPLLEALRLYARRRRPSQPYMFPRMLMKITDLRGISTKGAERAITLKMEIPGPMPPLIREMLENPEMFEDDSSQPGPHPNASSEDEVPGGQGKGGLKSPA
Protocol: as §1, §2

RAR β = target: T3, RAR β (Homo sapiens, UniProt P10826); assay: Activity for RAR β (CAT reporter in HaCaT cells); format: cell-based; details: 1 μM, CAT ELISA
T3 construct: expressed in transfected cells; host or cells: HaCaT
T3 sequence (P10826 1-455): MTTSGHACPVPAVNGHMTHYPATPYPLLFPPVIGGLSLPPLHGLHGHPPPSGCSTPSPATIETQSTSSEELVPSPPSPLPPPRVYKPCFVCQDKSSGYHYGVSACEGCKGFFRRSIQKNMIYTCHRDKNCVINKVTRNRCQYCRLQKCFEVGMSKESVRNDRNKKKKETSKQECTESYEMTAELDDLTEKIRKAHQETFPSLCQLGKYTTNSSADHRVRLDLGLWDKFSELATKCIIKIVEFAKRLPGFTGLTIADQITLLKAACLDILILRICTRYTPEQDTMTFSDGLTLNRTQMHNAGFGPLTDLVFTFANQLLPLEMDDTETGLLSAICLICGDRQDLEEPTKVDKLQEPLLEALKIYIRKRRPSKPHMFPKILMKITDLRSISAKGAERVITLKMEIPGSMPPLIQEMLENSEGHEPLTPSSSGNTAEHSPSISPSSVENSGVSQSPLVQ
Protocol: as §1, §2

[2] = Photostability test (UV-A 356 nm, 1H NMR); format: physicochemical; parameters: key: 4 = No qualitative change in ^1H NMR spectrum; 3 = Minute noise but no qualitative change in ^1H NMR spectrum; 2 = Clear noise and some qualitative change in ^1H NMR spectrum; 1 = Qualitative confirmation is difficult in ^1H NMR spectrum; details: room temperature
Protocol: In order to examine photostability of the compound of formula (1) compared with retinol, 10 mg of sample was irradiated by UV-A light (wavelength 356 nm) using a Spectroline (Model CM-10; Fluorescence analysis cabinet; Spectronics Corporation, Westbury, N.Y., USA) at certain intervals of time at room temperature.

[3] = test system: Normal human fibroblast (Newborn, passage: 6); assay: Collagen synthesis test (Sircol collagen assay); format: cell-based; details: 0.000001%, 0.00001%(w/v); human fibroblast
Protocol: The effect for collagen synthesis of the compound of formula (1) was examined by using retinol, retinoic acid, and derivatives thereof as comparison compounds to confirm its utility as inhibitors for skin aging as follows. The results are represented in FIG. 2.
Cell: Normal human fibroblast (Newborn, passage: 6)
Medium: DMEM containing 10% FBS→DMEM free of FBS was used when cells were treated with samples.
Concentration: A range of concentration where the samples exert no toxicity to the cells was selected through a cell toxicity test ? 0.000001%, 0.00001%(w/v)
Procedure: 1×10^5 cells/well were inoculated into a 6-well plate. Cells were cultured to show about 79–80% confluent. Cells were treated with test samples and incubated for 2 days (FBS was not added to the medium when cells were treated with samples). After 2 days, cell medium and cells were separated from each other and respectively stored in a refrigerator. The cell extract was subjected to the protein analysis (BCA Protein Assay Kit, PIERCE 23225) and the medium was subjected to collagen analysis.
After the medium was removed, a small amount of PBS was added. Cells were scraped with a scraper. 1N NaOH (100 μl) and distilled water (400 μl) were added and the resulting mixture was allowed to stand overnight. Then, the protein analysis was carried out.
Collagen analysis: Analysis kit (Sircol Collagen assay kit—a dye that specifically combines with soluble collagen is used)
1.0 ml of Sircol Dye Reagent was introduced into each tube and mixed for 30 minutes. The mixture was centrifuged for 10 minutes at 5,000 g or more and the supernatant was removed. 1.0 ml Sircol Alkali Reagent was added, slowly mixed, and absorbance at 540 nm was measured. The amount of protein was converted into the value of collagen analysis (see: Mechanism of Aging and Development 73, 179–187, 1994).
After the above experiment, the increasing ratio for collagen synthesis of the test group over the control group treated only by DMEM was depicted in FIG. 2.

skin of normal adults = assay: Test for skin irritation property (closed patch test); format: in vivo, human; details: closed patch test 24 hours, 20 adults
Protocol: In order to examine the skin irritation of the compound of formula (1), a patch test for the skin of normal adults was carried out. As the carrier, capryl caprylic triglyceride or the conventional O/W formulation was used, and twenty (20) adults per a group were tested for 24 hours.
The conventional O/W formulation used in the present experiment was prepared according to the following procedure.
Each of the aqueous part of Nos. 1–6 and the oily part of Nos. 7–13 as shown in the following Table 1 was heated to 75–80° C. to be thoroughly dissolved. The oily part was slowly added to the aqueous part and emulsification was performed for 5 minutes at 75–80° C. in a homomixer of 3000rpm. During the emulsification, the mixture was neutralized by the neutralizing agent of No. 14. After the first emulsification, the mixture was cooled, the retinal retaliate and fragrance of Nos. 15–16 were added at 50–55° C., and then the second emulsification was carried out for 3 minutes in a homomixer of 3000rpm. The mixture was cooled again to 27–30° C. to prepare the composition of O/W formulation.
From the experimental results, the irritation indexes were calculated according to the following Equation 1 and the results are represented in the following Table 2. Irritation index={Σ(Test Value×Number of Examinees Corresponding to the Test Value)/(Total Examinees×The Maximum Test Value)×100 Equation 1
Test Value +++: 5, ++: 4, +: 3, +−: 2, −:1
The degree of irritation was determined according to the following standards:
1.9 or less: Minute irritation, 2.0–2.9: Weak irritation, 3.0–3.9: Moderate irritation, 4.0 or more: Strong irritation

[4] = Control = 1.0, listed as retinal salicylate
[5] = Condition of expression: c-Jun + RAR α, untreated = 8.6
[6] = Condition of expression: c-Jun, untreated = 8.6
[7] = Condition of expression: — (no c-Jun or RAR α vector), untreated = 1.0
[8] = Control = 1.0, listed as retinal acetyl salicylate

Row | SMILES | Relative activity against RAR α (RAR α; Control = 1.0) | Relative inhibition against the expression of collagenase [1, 5] | Relative inhibition against the expression of collagenase [1, 6] | Relative inhibition against the expression of collagenase [1, 7] | effect on / inhibitory activity against c-Jun (AP-1), in words [1] | Relative activity against RXR α, β, γ (RXR α, β, γ) | Relative activity against RAR γ (RAR γ; Control = 1.0) | Relative activity against RAR β (RAR β; Control = 1.0) | other results
1 | CC1=C(/C=C/C(C)=C/C=C/C(C)=C/COC(=O)c2ccccc2O)C(C)(C)CCC1 [Retinyl salicylate] | 3.2 | 8.8 | 8.7 | 1.0 | no effect | 1.0 | 1.0 | 1.1 | Relative activity against RAR α (RAR α; [4]): low activity; Relative activity against RAR γ (RAR γ; [4]): no activity; Relative activity against RAR β (RAR β; [4]): no activity
2 | CC1=C(/C=C/C(C)=C/C=C/C(C)=C/C(=O)OC(=O)/C=C(C)/C=C/C=C(C)/C=C/C2=C(C)CCCC2(C)C)C(C)(C)CCC1 |  |  |  |  |  |  |  |  | Photostability level ([2]; After 0 hour, 10 mg sample): 4; Photostability level ([2]; After 2 hours): 3; Photostability level ([2]; After 12 hours): 2; Photostability level ([2]; After 24 hours): 2; Photostability level ([2]; After 48 hours): 2
3 | CC1=C(/C=C/C(C)=C/C=C/C(C)=C/C(=O)O)C(C)(C)CCC1 [Retinoic acid] | 37.0 | 3.1 | 5.4 | 0.6 |  | 9.5 | 3.0 | 4.0 | inhibition of the expression of collagenase ([1]; cells treated together with RAR α (c-Jun expressed)): about 64%
4 | CCCCCCCCCCCCCCCC(=O)OC/C=C(C)/C=C/C=C(C)/C=C/C1=C(C)CCCC1(C)C [Retinyl Palmitate] |  |  |  |  |  |  |  |  | effect for collagen synthesis (FIG. 2), comparison in words [3]: much lower effect for collagen synthesis than retinol; Degree of Irritation (skin of normal adults; 0.138% in C.C.T): Moderate irritation (3.0–3.9: Moderate irritation); Irritation Index (skin of normal adults; 0.138% in C.C.T): 3.8; Degree of Irritation (skin of normal adults; 0.55% in C.C.T): Strong irritation (4.0 or more: Strong irritation); Irritation Index (skin of normal adults; 0.55% in C.C.T): 4.5
5 | CC(=O)Oc1ccccc1C(=O)OC/C=C(C)/C=C/C=C(C)/C=C/C1=C(C)CCCC1(C)C [Retinyl acetyl salicylate] | 2.5 | 8.7 | 8.5 | 1.0 | no effect | 1.1 | 1.0 | 1.0 | Relative activity against RAR α (RAR α; [8]): low activity; Relative activity against RAR γ (RAR γ; [8]): no activity; Relative activity against RAR β (RAR β; [8]): no activity
